Measurements published in publication PMC11928584, “H105A peptide eye drops promote photoreceptor survival in murine and human models of retinal degeneration” (Communications Medicine, 2025).
Where a SMILES comes first, the peptide text is derived from it.

Columns and labels:
[1] = tested on: photoreceptors of rd10 mice; test: PSVue-550 fluorescence fundoscopy of photoreceptor cell death (PS externalization); format: in vivo, mouse; details: for PS externalization / photoreceptor cell death vs vehicle: daily eye drops 5 µl of 1 mg/ml from P15, PSVue-550 fundoscopy P21
Excerpt: (§1) Fluorescence fundoscopy with a cell death probe was chosen as a simple method for monitoring photoreceptor cell death in alive animals. A fluorescent probe, bis (zinc^2+-dipicolylamine)-550, (PSVue®-550) (Molecular Targeting Technologies Inc, cat. P-1005) was reconstituted in Hanks’ Balanced Salt Solution (HBSS, Quality Biological, cat. 114-062-101) according to the manufacturer’s instructions[28],[36]. This probe is suitable for in vivo use to specifically and transiently label dying photoreceptors, such as in living rats with retinal degeneration the Royal College of Surgeons rat model, in a non-invasive and non-toxic method without the need of intraocular injection. Briefly, a stock of 1 mM solution of PSVue®-550 was stored in the dark at 4 °C and used within 14 days directly as eye drop. After 3-4 h of light onset each mouse received eye drops of 5–10 μl of 1 mM PSVue®-550 in the left eye and HBSS in the right eye as control. The eye drop volume was chosen such that the eye cavity was filled without spillage outside the eye, and it was modified depending on eye size. […] To obtain in vivo retinal images of fundi, at 24 h after the probe was administered, the mice were anesthetized, and pupils were dilated with 1% tropicamide for 5 min and kept hydrated with GenTeal. Fluorescence was imaged using a retinal imaging microscope (Micron III, Phoenix Research Labs) using an FF02- 475/50 nm excitation filter (Semrock, Inc.). We observed some variability in optic nerve (ON) fluorescence that could not be readily explained, so the optic nerve was excluded from analyses in all samples.
(§2) To determine the natural history of photoreceptor death of rd10 and rd10/Serpinf1^-/- mice, we assessed photoreceptor cell death in live mice using the fluorescent probe termed PSVue® 550 to monitor PS externalization by fluorescence fundoscopy (Supplementary Fig. 2). Given the reports about the retinas of rd10 mice starting to show histological changes at P16, and with a peak in the number of TUNEL+ nuclei in the ONL at P17-18[13], we monitored PS externalization in photoreceptors of these mice undergoing degeneration before death onset. Eye drops of 1 mM PSVue® 550 solution in HBSS were administered to left eyes and HBSS (vehicle) to their contralateral right eyes of each mouse at ages P16, P20, P22 or P24. PS externalization was determined by fluorescence fundoscopy 24 h post-administration. PSVue labeling of phosphatidylserine (PS) externalization associated with photoreceptor cell death in the rd10 retina (Supplementary Figs. 2, 3).
(§3) Fig. 2 Effect of PEDF peptide eye drops on protection against photoreceptor cell death in rd10 and rd10/Serpinf1^-/- mice. a Illustration of the experimental timeline of peptide application. Eye drops containing 5 µl of 17-mer, H105A, or R99A peptides in HBSS were administered daily to eyes of rd10 and rd10/Serpinf1^-/- mice from P15 to P20. Vehicle (HBSS) was applied in contralateral eyes. At P20, PSVue® was applied via eye drops, and fluorescence fundoscopy was conducted at P21 to assess photoreceptor cell death. RE and LE refer to the right and left eyes, respectively. b Fluorescence fundoscopy micrographs. Representative fluorescence fundoscopy images of retinas from mice treated as in Panel a with eyedrops of 1 mg/ml of each peptide. Quantification of fluorescence intensity was performed using ImageJ, with average intensity values corrected for background fluorescence from eyes that had not received PSVue or peptides. Each line represents data from one animal comparing treated and contralateral eyes, with five eyes (n = 5) per condition. Statistical significance was determined by paired t-test (****p ≤ 0.0001, and ns > 0.05). Scale bar = 0.5 mm. c Dose response of peptide eye drops. Representative fluorescence fundoscopy micrographs showing retinas treated with varying concentrations of 17-mer and H105A peptides (0.0 mg/ml to 1.0 mg/ml) in rd10 and rd10/Serpinf1^-/- mice. […]

[2] = tested on: photoreceptors of rd10/Serpinf1-/- mice; test: as above; format: in vivo, mouse; details: daily eye drops 5 µl of 1 mg/ml from P15, PSVue-550 fundoscopy P21
Excerpt: as §1, §2, §3

[3] = tested on: photoreceptors of rd10/Serpinf1-/- mice; test: ONL thickness (histology, spider plot), rd10/Serpinf1-/- mice; format: in vivo, mouse; details: daily eye drops, P21
Method: Both eyes were oriented before enucleation to allow sectioning along the dorsal/ventral axis. Enucleated eyes from rd10 and rd10/Serpinf1^-/- mice were incised in the cornea and fixed in 2.5% glutaraldehyde for 20 min and then in 10% neutral buffered formalin at 4 °C for at least 48 h, followed by paraffin embedding, sectioning, and staining with either H&E or immunofluorescence procedures. […] For fluorescence microscopy, antibodies, and 0.1 µg/ml DAPI were used to immunostain and counterstain the nuclei, respectively. […] Fluorescence intensity was quantified using ImageJ, and a rectangle was selected around regions of interest (ROIs), channels were split for multiple antibodies, threshold was adjusted, noise was de-speckled, and fluorescence intensity was measured.
To generate spider plots, the ONL thickness was measured from images passing through the optic nerve (ON) acquired with light microscopy of the retina sections stained with H&E or images of retina sections stained with DAPI with a dorsal-ventral orientation. The ONL thickness in the entire retina sections was measured at 5 different positions from both sides of the ON using ImageJ[28]. […]

PEDF-R = details: cited from earlier work

Row | Structure (SMILES) | PS externalization / photoreceptor cell death vs vehicle [1] | eye drop concentration effective in restraining PS externalization (as low as) ([1]; titration 0.0-1.0 mg/ml, daily eye drops) | PS externalization / photoreceptor cell death vs vehicle [2] | OS length and ONL thickness vs vehicle-treated or untreated eyes [3] | affinity for PEDF-R (PEDF-R)
1 | CC[C@H](C)[C@H](NC(=O)[C@H](CC(C)C)NC(=O)[C@H](CC(=O)O)NC(=O)[C@H](Cc1ccc(O)cc1)NC(=O)[C@H](Cc1ccc(O)cc1)NC(=O)[C@H](CC(C)C)NC(=O)[C@H](C)NC(=O)[C@H](CCCNC(=N)N)NC(=O)[C@H](C)NC(=O)[C@@H](NC(=O)[C@@H](NC(=O)[C@H](CO)NC(=O)[C@H](CCC(=O)O)NC(=O)[C@@H](NC(=O)[C@H](CCCNC(=N)N)NC(=O)[C@@H](N)CCC(N)=O)[C@@H](C)O)[C@@H](C)CC)[C@@H](C)CC)C(=O)N[C@@H](CO)C(=O)O [H105A] (H-QRTESIIARALYYDLIS-OH) | diminished fundi fluorescence | 0.5 mg/mL | diminished fundi fluorescence | longer OS and thicker outer nuclear layer | have affinity for PEDF-R
2 | CC[C@H](C)[C@H](NC(=O)[C@H](CC(C)C)NC(=O)[C@H](CC(=O)O)NC(=O)[C@H](Cc1ccc(O)cc1)NC(=O)[C@H](Cc1ccc(O)cc1)NC(=O)[C@H](CC(C)C)NC(=O)[C@H](C)NC(=O)[C@H](CCCNC(=N)N)NC(=O)[C@H](Cc1c[nH]cn1)NC(=O)[C@@H](NC(=O)[C@@H](NC(=O)[C@H](CO)NC(=O)[C@H](CCC(=O)O)NC(=O)[C@@H](NC(=O)[C@H](C)NC(=O)[C@@H](N)CCC(N)=O)[C@@H](C)O)[C@@H](C)CC)[C@@H](C)CC)C(=O)N[C@@H](CO)C(=O)O [R99A] (H-QATESIIHRALYYDLIS-OH) | no major efficacy |  | no major efficacy | no effect | lacks PEDF-R affinity
